Assay results published in a melting point compilation (Tetko et al.; mined from patent text by program, amines drawn as free bases though some values may be those of a salt).

| Structure (SMILES) | melting point |
| --- | --- |
| OCC1OC(Oc2ccsc2Cc2ccc(OC(F)(F)F)cc2)C(O)C(O)C1O (centres undefined) | 144 to 145 °C |
| COC(=O)c1nc(-c2ccc(Cl)c(OC)c2F)nc(N)c1C(F)CBr (centres undefined) | 144 to 146 °C |
| CN(C)C/C=C\c1ncccc1OCCO | 71 °C |
| O=C(OCc1cc(COC(=O)c2ccc(O)c(F)c2)cc(COC(=O)c2ccc(O)c(F)c2)c1)c1ccc(O)c(F)c1 | 88 °C |
| Cn1ncnc1COc1nn2c(-c3ccccc3)nnc2cc1-c1ccco1 | 263 to 265 °C |
| Cc1ncc2c(c1OCC(=O)O)COC2(C)c1ccc(Cl)cc1 (centres undefined) | 184 °C |
| CC(c1oc2ccccc2c(=O)c1-c1ccc(F)cc1)n1cnc2c(N)ncnc21 (centres undefined) | 210 to 212 °C |
| CC(C)(OCc1n[nH]c2ccccc12)C(=O)O | 135 to 137 °C |
| CC(C)(C)NC(=O)C(=O)c1ccccc1 | 76 to 77 °C |
| Cc1nn(-c2ccc(C(F)(F)F)cn2)cc1CCCOc1cc(CCC(=O)O)n(-c2ccccc2)n1 | 125 to 126 °C |
| CC1=CC(=O)C(C)=C2CC(C)(C)N=C12 | 107 to 109 °C |
| CC(C)(CN(Cc1ccccc1)C(=O)CCC(=O)O)SN=O | 95 to 98 °C |
| COC(=O)CCc1oc(-n2cnc3ccccc32)nc1-c1ccc(C(F)(F)F)cc1 | 129 to 130 °C |
| O=S(=O)(Nc1ccc(OCc2ccc3ccccc3n2)cc1)c1ccc(Cl)cc1 | 125 °C |
| NCC#CC1(Cl)C=CC=CC1C(=O)c1ccccc1Cl (centres undefined) | 81 to 82 °C |
| CC1OC(=O)N(Cc2ccccc2[N+](=O)[O-])C1=O (centres undefined) | 114 °C |
| Nc1ccc(C2Nc3ccccc3C(=O)N2c2ccccc2)cc1 (centres undefined) | 191 °C |
| CN(C)c1ccc(/C=C/c2c(F)cccc2F)c(N)c1 | 97 to 98 °C |
| Cc1c(NC(=O)c2ccc(-c3ccc(F)cc3)cc2)ccc2cc(C(C)N3CCCCC3)cnc12 (centres undefined) | 168 to 170 °C |
| NC(=O)NC1CCC(OC(=O)c2ccccc2)c2sccc21 (centres undefined) | 199 to 205 °C |
| CC1Oc2ccc(OCc3nc4cc(F)ccc4s3)cc2C(=O)C1Cc1cccc(NS(=O)(=O)C(F)(F)F)c1 (centres undefined) | 183 to 185 °C |
| CSc1sc(C(C)=O)cc1[N+](=O)[O-] | 191 to 193 °C |
| Cn1c(Sc2ccccc2)c(C=NO)c(=O)n(C)c1=O | 152 °C |
| COc1ccc(-c2nc(-c3ccccc3)c(-c3ccncc3)n2C)cc1 | 193 to 194 °C |
| CN(C)c1ccc2nc(N)c(C#N)c(N=Cc3ccccc3)c2c1 | 265 °C |

| Structure (SMILES) | melting point |
| --- | --- |
| COC(=O)C(OC(=O)c1ccc(C(=O)O)cc1)C(=O)OC | 104 to 107 °C |
| COc1ccc2cc(C(=O)O)sc(=O)c2c1 | 291 to 292 °C |
| COc1ccc(CSc2nnc(-c3ccc4occc4c3)o2)cc1F | 134 to 136 °C |
| Cc1onc(NS(=O)(=O)c2ccccc2-c2ccc(-c3ncco3)cc2CN2CCC(C)(C)C2=O)c1C | 110 to 117 °C |
| NNC(=S)NCC1CC(c2ccc(Cl)cc2)=NO1 (centres undefined) | 115 to 117 °C |
| CCOCC1COc2cc3c(O)c(C(=O)OCC)cnc3cc2O1 (centres undefined) | 266 to 268 °C |
| C#CCNC(=O)N1CC(Oc2ccc(C(F)(F)F)cc2)C1 | 135 to 137 °C |
| COc1ccc(/C=C/c2cc(Cl)cc(Cl)c2)cc1 | 62 to 64 °C |
| COc1ccccc1CN1CCC(=O)C(C2c3ccccc3Oc3ccccc32)C1 (centres undefined) | 96 to 97 °C |
| Cc1cc(C[C@H]2NC(=O)O[C@H]2c2ccc(F)cc2)cc(OC(F)(F)C(F)F)c1 (racemic) | 107 to 108 °C |
| CNC(=O)C(c1ccc(F)cc1)c1ccc(F)cc1 | 179 to 180 °C |
| O=C(OC1CCCCC1)c1ncn2c1[C@@H]1CCCN1C(=O)c1c-2cccc1C(F)(F)F | 193 to 194 °C |
| COc1ccc(CC(=O)Nc2cc(Cl)c(Cl)cc2[N+](=O)[O-])cc1 | 124 to 126 °C |
| CCOC(Cc1ccc(OCCN2c3ccccc3Oc3ccccc32)cc1)C(=O)O (centres undefined) | 86 to 102 °C |
| O=[N+]([O-])c1ccc(C=Cc2ccncn2)cc1 | 213 to 215 °C |
| N=C(N)Nc1nc(CSCCNC2=NS(=O)(=O)N=C2N)cs1 | 134 to 149 °C |
| Cc1c(Cl)sn(-c2ccc(Cl)cc2)c1=O | 104 to 106 °C |
| Cc1c(-c2ccc3oc(SCc4ccccn4)nc3c2)nc2ccccn12 | 116 to 118 °C |
| COc1cc(C(=O)C#CCO)cc(OC)c1OC | 104 to 105 °C |
| CC(C)(C)Nc1c(NCc2cccc(F)c2)c(=O)c1=O | 295 to 297 °C |
| CN1C(=O)C(c2cccc(Br)c2)(c2c[nH]c(C=O)c2)N=C1N (centres undefined) | 142 to 151 °C |
| CCOC(=O)c1nccn1CCCc1ccc(OCc2coc(/C=C/c3ccccc3)n2)cc1 | 123 to 124 °C |
| CCc1c(F)c(=O)oc2cc(O)cc(O)c12 | 227 to 229 °C |
| COC(=O)c1cscc1NC(=O)CCl | 98 to 100 °C |
| CC(C)C1C(CO)=C(c2ccc(F)cc2)C=CN1C12CC3CC(CC(C3)C1)C2 (centres undefined) | 143 to 145 °C |

| Structure (SMILES) | melting point |
| --- | --- |
| COC(=O)OC1=C(c2cc(C)ccc2C)C(=O)NC12CCN(OC)CC2 | 186 to 188 °C |
| COc1cnc(CS(C)(=O)=O)nc1OC(=O)NN1CCOCC1 | 138 °C |
| COc1cc2ncnc(N3CCN(C(=S)Nc4ccc(C(F)(F)F)cc4)CC3)c2cc1OC | 117 to 119 °C |
| COCCNC(=O)c1cccc(-c2cccc3cc(Cc4ccc5c(c4)CCO5)sc23)c1 | 79 to 80 °C |
| COc1ccc(C(=NOC(C)=O)c2cccc(F)c2F)c(O)c1Cl | 136 to 139 °C |
| O=C(Nc1cc(Cl)c(O)c(Cl)c1)c1cc(F)ccc1O | 227 to 229 °C |
| COc1ccc(C2CNCc3cc(C)ccc32)cc1OC (centres undefined) | 129 to 131 °C |
| O=C(O)COc1ccc(SCc2ccc(OCc3ccc(Cl)cc3)cc2)c2c1CCC2 | 170 to 172 °C |
| CCCCC[C@@H](CC(=O)NO)C(=O)N[C@H](CC(C)C)C(=O)N[C@@H](C)C(N)=O | 134 to 136 °C |
| Cc1cc(=O)[nH]nc1-c1ccc2nc(C3CC3)n(Cc3ccc(-c4ccccc4-c4nnn[nH]4)cc3)c2c1 | 225 °C |
| CCOC(C)O[C@H]1C(=O)N(C(=O)Nc2ccccc2)[C@H]1c1ccccc1 (some centres undefined) | 152 to 155 °C |
| O=S1(=O)N=C(NOCc2ccccc2)Nc2ccc(Cl)cc21 | > 220 °C |
| Cn1c(=O)c2c(nc(Cl)n2Cc2ccccc2)n(C)c1=O | 146 to 147 °C |
| COC(=O)c1cccc(-c2noc(C)n2)c1 | 81 °C |
| COC(=O)c1cc([N+](=O)[O-])c(C(C)(C)C)c([N+](=O)[O-])c1 | 115 to 117 °C |
| ClCCOc1ccc(Cl)c2[nH]cc(Cl)c12 | 106 to 108 °C |
| ClCCCOc1cccc2cccnc12 | 69 to 71 °C |
| O=C(Nc1ccc(C(F)(F)F)cc1)Nc1ccc(S(=O)(=O)Nc2ccc(Cl)cc2)cc1 | 252 to 257 °C |
| COc1ccc2nn(C=Cc3ccc(-c4ccccc4)cc3)nc2c1 | 165 to 175 °C |
| COCc1ncccc1CN(CCn1ccc2occc2c1=O)Cc1ccc2c(c1)NC(=O)C(C)(C)C(=O)N2CC(C)C | 149 to 151 °C |
| C[C@@H]1Cc2cc(N3C[C@H](C(N)=O)OC3=O)ccc2N1C(=O)CO | 198 to 200 °C |
| NC(=O)c1nn(-c2ccc(F)cc2)c2c1CCc1ccc(NC(=O)c3cc(N4CCOCC4)ncc3Cl)cc1-2 | 309 to 313 °C |
| O=C(O)COc1ccc(NC(=O)OCc2ccccc2)cc1 | 152 to 154 °C |
| Cc1cc(C)c(C=O)c(O)c1C | 74 to 75.5 °C |
| CCOC(=O)C1=C(C(Br)Br)Nc2ncnn2C1C (centres undefined) | 170 to 171 °C |

| Structure (SMILES) | melting point |
| --- | --- |
| CCOC(=O)c1c(NC(=O)C(F)(F)F)c2cccnc2n(CC)c1=O | 195 to 197 °C |
| COC(=O)c1ccccc1S(=O)(=O)NC(=O)Nc1cc(C)nc(C)n1 | 125 to 127 °C |
| N#Cc1ccc(NC(CNCC(=O)O)[N+](=O)[O-])cc1 (centres undefined) | 230 °C |
| Cc1c(Cc2cccc(C(F)(F)F)c2)oc2c(-c3cccc(C(=O)NCCC#N)c3)cccc12 | 158 to 159 °C |
| CCCC(O)(CCC)c1ccc(Cl)c2nc3n(c12)CCCN3c1c(C)cc(Cl)cc1Cl | 176 to 178 °C |
| CCCCCCCCCCCCCCCCCCOc1cc(OCc2ccc3ccccc3n2)cc(N(CC(=O)O)CC(=O)O)c1 | 172 to 174 °C |
| CC(=O)Nc1ccc(NC(=O)N(C[C@H]2CC[C@H](CN(C(=O)Nc3ccc(NC(C)=O)cc3)C3CCCCC3)CC2)C2CCCCC2)cc1 | 228 to 231 °C |
| O=Cc1cc(-c2ccccc2)no1 | 67 to 69 °C |
| CCCc1c(OCc2cccc(COc3ccccc3CCC(=O)O)c2)ccc2c1OCCC2=O | 132 to 135 °C |
| COc1ccc(C=Cc2ccc(C)c(Cl)c2)c(Cl)c1 | 77 to 79 °C |
| NC(CCN(CCC(N)=NO)CCN(CCC(N)=NO)CCC(N)=NO)=NO | 191 to 192 °C |
| O=c1[nH]c2ccc(C=C3c4ccc(F)cc4CCc4cc(F)ccc43)cc2[nH]1 | 257 °C |
| CS(=O)(=O)c1cc(Br)ccc1C(=O)O | 220 °C |
| O=[N+]([O-])c1cn2c(n1)O[C@@H](COc1ccc(N3CCN(Cc4ccc(Oc5ccc(C(F)(F)F)cn5)cc4)CC3)cc1)CC2 | 229 to 230 °C |
| O=C(O)CCc1cnoc1-c1ccc(F)c(Br)c1 | 136 to 137 °C |
| O=C1C(=O)N(CCCCN2CCN(C(c3ccccc3)c3ccccc3)CC2)c2ccc(Br)cc21 | 132 to 133 °C |
| CC1=C(/C=C/S(=O)(=O)NC(C)C)C(c2cc([N+](=O)[O-])ccc2Cl)C(C(=O)OC(C)C)=C(C)N1 (centres undefined) | 199 to 201 °C |
| NC(=O)CNC(=O)c1cccc(-c2ccc3c(c2)N(c2cccc(Cl)c2Cl)CC3)c1 | 203 to 204 °C |
| O=C(O)C(Cc1ccc(OCCN2c3ccccc3Oc3ccccc32)cc1)C(=O)O | 303 to 307 °C |
| CN(c1c(Cl)ccc2cc(-c3ncc(CO)s3)[nH]c12)S(=O)(=O)c1cccs1 | 214 to 215 °C |
| CC(C)(Cn1cnc2c(N)nc3ccccc3c21)C(N)=O | 287 to 289 °C |
| Cn1cc(C2=C(c3cn(C(=O)C(C)(C)C)c4cc([N+](=O)[O-])ccc34)C(=O)NC2=O)c2ccccc21 | > 245 °C |
| CCOc1nc2c(nc1C(=O)Cl)c(C)nn2CC | 109 to 111 °C |
| COC1N=C(c2ccccc2Cl)c2cc(Cl)ccc2-c2cn(C)cc21 (centres undefined) | 128 to 130 °C |
